Measurements published in US20220071880A1, “METHODS FOR TREATING CUTANEOUS AGING” (Applied Therapeutics, Inc., priority 2019, published 2022).
Entries after “also recorded” stand apart in the source; their conditions may differ.

How the values were obtained:
Format in all cases: cell-based
[1] = test system: Cultured human skin cells (keratinocytes); assay: Cytosolic reactive oxygen species by dihydroethidium (DHE) staining in H2O2-exposed cultured keratinocytes
Description: FIGS. 1A and 1B are fluorescence images of cultured human skin (keratinocytes) that were exposed to H2O2 to cause oxidative stress. The cells were analyzied for cytosolic reactive oxygen species by staining with dihydroethidium (DHE). FIG. 1A depicts the skin cell damage in the presence of H2O2 as assessed by DHE staining, and the presence of cytosolic reactive oxygen species is shown by fluorescence.
(§1) Cultured human skin cells (keratinocytes) were exposed to H2O2, which causes oxidative damage to simulate the aging process, in the presence of Compound A (at 0.18 nM concentration) or vehicle control. The cultured cells were then assessed for cytosolic reactive oxygen species via Dihydroethidium (DHE) staining (FIG. 1A and FIG. 1B) and for mitochondrial stress via Mitosox™ (a fluorgenic dye targeted to mitochondria in live cells and readily oxidized by superoxide to produce fluorescence, ThermoFisher Scientific) staining (FIG. 2A and FIG. 2B).

[2] = test system: Cultured human skin cells (keratinocytes); assay: Mitochondrial oxidative stress by Mitosox staining in H2O2-exposed cultured keratinocytes
Procedure: FIGS. 2A and 2B are fluorescence images of cultured human skin (keratinocytes) that were exposed to H2O2 to cause oxidative stress. The cells were analyzied for mitochondrial stress by staining with Mitosox. FIG. 2A depicts the skin cell damage in the presence of H2O2 as assessed by Mitosox staining.
as §1

[3] = test system: cultured human keritinocytes; assay: Senescence-associated beta-galactosidase (SA-βgal) expression in H2O2-exposed cultured keratinocytes, cytochemical approach; settings: human keratinocytes exposed to H2O2; Compound A at 0.18 nM vs vehicle control
Procedure: Senescence-associated beta-galactosidase (SA-βgal) is a well-known biomarker of senescent cells in culture and in vivo. Debacq-Chainiaux et al., Nature Protocols 4, 1798-1806 (2009). In additional studies the cultured human keritinocytes that were exposed to H2O2 in the presence of Compound A (at 0.18 nM concentration) or vehicle control were analyzed for expression of SA-βgal using a cytochemical approach.

[4] = same cultured human keratinocyte system, concentration not given
[5] = human keratinocytes exposed to H2O2, Compound A at 0.18 nM vs vehicle control

Row | H2O2-induced SA-βgal expression [3] | SMILES | H2O2-induced cytosolic reactive oxygen species formation [1, 4] | H2O2-induced mitochondrial oxidative stress [2, 4] | H2O2-induced cytosolic reactive oxygen species formation (DHE fluorescence) [1, 5] | H2O2-induced mitochondrial oxidative stress (Mitosox fluorescence) [2, 5]
1 | – | O=C(O)Cc1nn(Cc2nc3cc(C(F)(F)F)ccc3s2)c(=O)c2cscc12 [Compound B] | inhibited H2O2-induced cytosolic reactive oxygen species formation | inhibited H2O2-induced cytosolic reactive oxygen species formation and mitochondrial oxidative stress | – | –
2 | inhibited H2O2-induced SA-βgal | O=C(O)Cc1nn(Cc2nc3cc(C(F)(F)F)ccc3s2)c(=O)c2nccnc12 [Compound A] | – | – | attenuated DHE fluorescence; also recorded: attenuated H2O2-induced cytosolic reactive oxygen species formation | reduced Mitisox fluorescence; also recorded: reduced mitochondrial oxidative stress
